Consider 6 substances from patent publication US5079231A, “Immunostimulating peptides, a process for their preparation and pharmaceutical compositions containing them” (Ellem Industria Farmaceutica S.p.A., priority 1988, dated 1992).

No end group written: not given here.

The conditions of series [1]: known tripeptides; cited from earlier work.
Series [2] deals with T-lymphocytes. To be noted: known peptides, earlier patent applications and literature; cited from earlier work.
Series [3] in a line: Resistance to the in vitro simulated gastric ambient. Type of series: in vitro ADME. The note with it: 37° C., 3 hours, gastric simulated juice USP XXl (HCl+pepsin). As to the method:
Resistance to the in vitro simulated gastric ambient
The hexapeptides Arg-Lys-Glu-Arg-Ala-Arg and Arg-Ala-Arg-Arg-Lys-Glu are stable at 37° C. for 3 hours in in vitro simulated gastric ambient using the gastric simulated juice USP XXl (HCl+pepsin).

In the case of Arg-Ala-Arg, the “stability to the in vitro simulated gastric juice” value in series [1] was “stable”. In addition, in series [2], the “immunostimulating activity (maturation and functionality of T-lymphocytes)” value (“immunostimulating activity” below) is “endowed with immunostimulating activity”.

With Arg-Gly-Asp, in series [2], the “immunostimulating activity” value is “displays a similar behaviour”.

Consider Arg-Lys-Asp, for which the “immunostimulating activity” value in series [2] is “displays a similar behaviour”.

As for Arg-Lys-Glu, the “stability to the in vitro simulated gastric juice” value in series [1] is reported as “stable”. Moreover, the “immunostimulating activity” value in series [2] is “has immunostimulating properties”.

Take “RARRKE [ARG--ALA--ARG--ARG--LYS--GLU, Arg-Ala-Arg-Arg-Lys-Glu]”: in series [3], the “Resistance to the in vitro simulated gastric ambient” value is reported as “stable”.

In the case of “RKERAR [ARG--LYS--GLU--ARG--ALA--ARG, Arg-Lys-Glu-Arg-Ala-Arg]”, the “Resistance to the in vitro simulated gastric ambient” value in series [3] is “stable”.
